Reference: ChEMBL document CHEMBL1201862, “PubChem BioAssay data set” (2004)
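Results reflect a 48-hour exposure of cells in 96-well plates to compound at five concentrations. GI50 = concentration required for 50% inhibition of growth.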 Activity calls are given as the source filed them. Cut-off read from the data, not from the text of the source: active = GI50 up to about 1.1 µM and inactive = higher.

Key:
Test in all cases: inhibition of tumour cell growth, NCI panel, 48 h
[1] = tested on: TK-10
[2] = tested on: NCI/ADR-RES
[3] = tested on: SF-539
[4] = tested on: A498
[5] = tested on: SK-MEL-2
[6] = tested on: HCT-116
[7] = tested on: MDA-MB-435
[8] = tested on: OVCAR-3
[9] = tested on: SNB-75
[10] = tested on: RXF 393
[11] = tested on: Hs-578T
[12] = tested on: COLO 205
[13] = tested on: DU-145
[14] = tested on: SW-620
[15] = tested on: NCI-H460
[16] = tested on: K562
[17] = tested on: MOLT-4
[18] = tested on: HOP-62
[19] = tested on: HCT-15
[20] = tested on: NCI-H23
[21] = tested on: UACC-62
[22] = tested on: OVCAR-8
[23] = tested on: UACC-257
[24] = tested on: NCI-H226
[25] = tested on: CAKI-1
[26] = tested on: MCF7
[27] = tested on: ACHN
[28] = tested on: SK-MEL-28
[29] = tested on: CCRF-CEM
[30] = tested on: Malme-3M
[31] = tested on: KM12
[32] = tested on: SF-295
[33] = tested on: HT-29
[34] = tested on: MDA-MB-231
[35] = tested on: SF-268
[36] = tested on: RPMI-8226
[37] = tested on: M14
[38] = tested on: SK-OV-3
[39] = tested on: SK-MEL-5
[40] = tested on: 786-0
[41] = tested on: PC-3
[42] = tested on: BT-549
[43] = tested on: HCC 2998
[44] = tested on: HL-60
[45] = tested on: SN12C
[46] = tested on: A549
[47] = tested on: OVCAR-5
[48] = tested on: U-251
[49] = tested on: OVCAR-4
[50] = tested on: NCI-H522
[51] = tested on: SNB-19
[52] = tested on: MDA-N
[53] = tested on: T47D
[54] = tested on: IGROV-1
[55] = tested on: EKVX
[56] = tested on: LOX IMVI
[57] = tested on: HOP-92
[58] = tested on: SR
[59] = tested on: UO-31

COC1CC(C)([N+](=O)[O-])C(O)C(C)O1 (configuration not stated)
GI50 [1]: > 100 µM (inactive) | GI50 [2]: > 100 µM (inactive) | GI50 [3]: > 100 µM (inactive) | GI50 [4]: > 100 µM (inactive) | GI50 [5]: > 100 µM (inactive) | GI50 [6]: > 100 µM (inactive) | GI50 [7]: > 100 µM (inactive) | GI50 [8]: > 100 µM (inactive) | GI50 [9]: > 100 µM (inactive) | GI50 [10]: > 100 µM (inactive) | GI50 [11]: > 100 µM (inactive) | GI50 [12]: > 100 µM (inactive) | GI50 [13]: > 100 µM (inactive) | GI50 [14]: > 100 µM (inactive) | GI50 [15]: > 100 µM (inactive) | GI50 [16]: > 100 µM (inactive) | GI50 [17]: > 100 µM (inactive) | GI50 [18]: > 100 µM (inactive) | GI50 [19]: > 100 µM | GI50 [20]: > 100 µM (inactive) | GI50 [21]: > 100 µM (inactive) | GI50 [22]: > 100 µM (inactive) | GI50 [23]: > 100 µM (inactive) | GI50 [24]: > 100 µM (inactive) | GI50 [25]: > 100 µM (inactive) | GI50 [26]: > 100 µM (inactive) | GI50 [27]: > 100 µM (inactive) | GI50 [28]: > 100 µM (inactive) | GI50 [29]: > 100 µM (inactive) | GI50 [30]: > 100 µM (inactive) | GI50 [31]: > 100 µM (inactive) | GI50 [32]: > 100 µM (inactive) | GI50 [33]: > 100 µM (inactive) | GI50 [34]: > 100 µM (inactive) | GI50 [35]: > 100 µM (inactive) | GI50 [36]: > 100 µM (inactive) | GI50 [37]: > 100 µM (inactive) | GI50 [38]: > 100 µM (inactive) | GI50 [39]: > 100 µM (inactive) | GI50 [40]: > 100 µM (inactive) | GI50 [41]: > 100 µM (inactive) | GI50 [42]: 91.6 µM (inactive) | GI50 [43]: > 100 µM (inactive) | GI50 [44]: > 100 µM (inactive) | GI50 [45]: > 100 µM (inactive) | GI50 [46]: > 100 µM (inactive) | GI50 [47]: > 100 µM (inactive) | GI50 [48]: > 100 µM (inactive) | GI50 [49]: > 100 µM (inactive) | GI50 [50]: > 100 µM (inactive) | GI50 [51]: > 100 µM (inactive) | GI50 [52]: > 100 µM (inactive) | GI50 [53]: > 100 µM (inactive) | GI50 [54]: > 100 µM (inactive) | GI50 [55]: > 100 µM (inactive) | GI50 [56]: > 100 µM (inactive) | GI50 [57]: > 100 µM (inactive) | GI50 [58]: > 100 µM (inactive) | GI50 [59]: > 100 µM (inactive)

Cc1cc(SCC(=O)c2ccc(Br)cc2)cc(C)[o+]1
GI50 [1]: 35.1 µM (inactive) | GI50 [2]: 29.8 µM (inactive) | GI50 [3]: 23 µM (inactive) | GI50 [4]: 27.3 µM (inactive) | GI50 [5]: 30.8 µM (inactive) | GI50 [6]: 23.8 µM (inactive) | GI50 [7]: 21.3 µM (inactive) | GI50 [8]: 21.4 µM (inactive) | GI50 [9]: 20.3 µM (inactive) | GI50 [10]: 28.6 µM (inactive) | GI50 [11]: 47.6 µM (inactive) | GI50 [12]: 31.9 µM (inactive) | GI50 [13]: 29.5 µM (inactive) | GI50 [14]: 34 µM (inactive) | GI50 [15]: 25.5 µM (inactive) | GI50 [16]: 24.9 µM (inactive) | GI50 [17]: 17.4 µM (inactive) | GI50 [18]: 36.8 µM (inactive) | GI50 [19]: 32.1 µM | GI50 [20]: 31.6 µM (inactive) | GI50 [21]: 31.4 µM (inactive) | GI50 [22]: 32.4 µM (inactive) | GI50 [23]: 25.1 µM (inactive) | GI50 [24]: 31.3 µM (inactive) | GI50 [25]: 35.9 µM (inactive) | GI50 [26]: 19.3 µM (inactive) | GI50 [27]: 31.2 µM (inactive) | GI50 [28]: 13.8 µM (inactive) | GI50 [29]: 16 µM (inactive) | GI50 [30]: 30.9 µM (inactive) | GI50 [31]: 24.4 µM (inactive) | GI50 [32]: 26.6 µM (inactive) | GI50 [33]: 25.1 µM (inactive) | GI50 [34]: 36.6 µM (inactive) | GI50 [35]: 47.6 µM (inactive) | GI50 [36]: 21.7 µM (inactive) | GI50 [37]: 26.5 µM (inactive) | GI50 [38]: 60 µM (inactive) | GI50 [39]: 18 µM (inactive) | GI50 [40]: 33.5 µM (inactive) | GI50 [41]: 29.4 µM (inactive) | GI50 [42]: 39.7 µM (inactive) | GI50 [43]: 25.2 µM (inactive) | GI50 [44]: 13.5 µM (inactive) | GI50 [45]: 39 µM (inactive) | GI50 [46]: 31.7 µM (inactive) | GI50 [47]: 20.6 µM (inactive) | GI50 [48]: 30.1 µM (inactive) | GI50 [49]: 24.9 µM (inactive) | GI50 [50]: 21.6 µM (inactive) | GI50 [51]: 36.7 µM (inactive) | GI50 [52]: 30.6 µM (inactive) | GI50 [53]: 19.8 µM (inactive) | GI50 [54]: 37.4 µM (inactive) | GI50 [55]: 12.4 µM (inactive) | GI50 [56]: 32.1 µM (inactive) | GI50 [57]: 22.7 µM (inactive) | GI50 [58]: 22.8 µM (inactive) | GI50 [59]: 26.6 µM (inactive)

CCCCc1ccc(Nc2nc(Cl)c3ccn(C4CC(Oc5ccc(C)cc5)C(COc5ccc(C)cc5)O4)c3n2)cc1 (configuration not stated)
GI50 [1]: 30.3 µM (inactive) | GI50 [2]: > 46.5 µM (inactive) | GI50 [3]: > 46.5 µM (inactive) | GI50 [4]: > 46.5 µM (inactive) | GI50 [5]: > 46.5 µM (inactive) | GI50 [6]: > 46.5 µM (inactive) | GI50 [7]: > 46.5 µM (inactive) | GI50 [8]: > 100 µM (inactive) | GI50 [9]: > 83.2 µM (inactive) | GI50 [10]: > 46.5 µM (inactive) | GI50 [11]: > 100 µM (inactive) | GI50 [12]: > 46.5 µM (inactive) | GI50 [13]: > 46.5 µM (inactive) | GI50 [14]: > 46.5 µM (inactive) | GI50 [15]: > 31.6 µM (inactive) | GI50 [16]: > 46.5 µM (inactive) | GI50 [17]: > 46.5 µM (inactive) | GI50 [18]: > 100 µM (inactive) | GI50 [19]: > 46.5 µM | GI50 [20]: 24.8 µM (inactive) | GI50 [21]: 24.5 µM (inactive) | GI50 [22]: > 46.5 µM (inactive) | GI50 [23]: 25.9 µM (inactive) | GI50 [24]: > 46.5 µM (inactive) | GI50 [25]: > 46.5 µM (inactive) | GI50 [26]: > 46.5 µM (inactive) | GI50 [27]: 25.2 µM (inactive) | GI50 [28]: > 100 µM (inactive) | GI50 [29]: > 46.5 µM (inactive) | GI50 [30]: 26.7 µM (inactive) | GI50 [31]: > 46.5 µM (inactive) | GI50 [32]: > 46.5 µM (inactive) | GI50 [33]: > 46.5 µM (inactive) | GI50 [34]: > 46.5 µM (inactive) | GI50 [35]: > 100 µM (inactive) | GI50 [36]: > 46.5 µM (inactive) | GI50 [37]: > 46.5 µM (inactive) | GI50 [38]: > 46.5 µM (inactive) | GI50 [39]: > 46.5 µM (inactive) | GI50 [40]: > 46.5 µM (inactive) | GI50 [41]: > 100 µM (inactive) | GI50 [42]: 12.6 µM (inactive) | GI50 [43]: > 46.5 µM (inactive) | GI50 [44]: > 46.5 µM (inactive) | GI50 [45]: > 46.5 µM (inactive) | GI50 [46]: > 46.5 µM (inactive) | GI50 [47]: > 31.6 µM (inactive) | GI50 [48]: > 46.5 µM (inactive) | GI50 [49]: > 31.6 µM (inactive) | GI50 [50]: 22.4 µM (inactive) | GI50 [51]: 25.9 µM (inactive) | GI50 [52]: > 46.5 µM (inactive) | GI50 [53]: > 46.5 µM (inactive) | GI50 [54]: 22.9 µM (inactive) | GI50 [55]: 28.6 µM (inactive) | GI50 [56]: > 46.5 µM (inactive) | GI50 [57]: > 46.5 µM (inactive) | GI50 [58]: > 10 µM (inactive) | GI50 [59]: 25.6 µM (inactive)
